Results on 90 molecules are retold here after a melting point compilation (Tetko et al.; mined from patent text by program, amines drawn as free bases though some values may be those of a salt).

Bounds are passed on as bounds.

Usually melting point stands for the temperature, or range, at which the solid turns liquid. With `CCCOc1ccccc1-c1nc2c(C(=O)NCC)cccc2c(=O)[nH]1`, the melting point lay in the range of 161 to 162 °C.
In the case of `CN1C2CCCC1CN(c1ccc3cc([N+](=O)[O-])ccc3n1)C2`, the melting point came out at 166 °C.
The molecule `CCCCCCCCCCCCCCCCCCCCCCOC(=O)P(=O)(OC)OC` gave a melting point of 60 to 61 °C.
`O=C(O)c1c(C(F)(F)F)nc2cc(C(F)(F)F)ccc2c1O` displayed a melting point of 240 °C.
The result for `O=C(NCc1cccnc1)c1ccc2n1Cc1ccccc1N(C(=O)COc1ccc(Cl)cc1)C2` reads 169 to 171 °C; that for `CCC(CC)CC(NC(=O)COC)C1(c2ccc(Cl)c(Cl)c2)CCC1` (stereo not given), 72 to 74 °C; that for `CCCCc1nc2c(N)nc3ccccc3c2n1CCN1C(=N)NC2CSC(CCCCC(N)=O)C21` (stereo not given), 95 to 96 °C.
Take `Cc1csc(C)c1CO`: the melting point was 80 to 81 °C.
Turning to `CS(=O)(=O)N1CCC(C2c3ccccc3C=Cc3ccccc32)CC1`, the melting point is 260 to 268 °C.
For the molecule `CC(C)c1cccc(C(C)C)c1NC(=O)CNCC1(Nc2ccccc2)CCCCC1`, the melting point is 104 to 106 °C.
In turn, `CC(C)N(CCS(=O)(=O)c1ccc(Cl)cc1)C(=O)Oc1ccccc1` gave a melting point of 77.5 to 79 °C.
In turn, `CCCCOc1ccc(S(C)(=O)=O)cc1-c1nc2c(CC)n(C3CN(C(C)C)C3)nc2c(=O)[nH]1` gave a melting point of 209 to 213 °C.
`O=C(CC(=O)c1snc(Cl)c1Cl)c1ccc(O)cc1` showed a melting point of 224 to 227 °C.
`CCCCCCCCCCCCNC(=O)c1cc(-c2cc(Cl)cc(Cl)c2)c(OCC(=O)O)c(-c2cc(Cl)cc(Cl)c2)c1` gave a melting point of 139 to 144 °C.
With `CO/C(=C\c1ccc2oc(Cc3nc(-c4ccccc4)oc3C)cc2c1)C(N)=O`, the melting point was 160 to 164 °C.
Consider `CCC(Oc1cccc([N+](=O)[O-])c1)C(=O)NCc1ccccc1` (stereo not given), for which the melting point is 114 to 116 °C.
The value for `CN(Cc1ccc(NC(=O)C2=Cc3cc(-c4ccc(Cl)c(Cl)c4)ccc3S(=O)(=O)CC2)cc1)C1CCOCC1` was 235 to 237 °C; that for `CCOC(=O)c1c(Cn2cnnc2)nc2cc(OC)c(OC)cc2c1-c1ccc(OC(C)C)c(OC)c1` was 178 to 179 °C.
The molecule `CC(=O)N1CCC(C(=NO)c2ccc(Cl)cc2Cl)CC1` registered a melting point of 167 to 168 °C.
Take `O=C(Nc1ccc(-n2nc(C(F)(F)F)cc2C(F)(F)F)cc1)c1ccncc1`: the melting point lay within 156 to 157 °C.
In the case of `Cc1cc2c(-c3cccc(C(F)(F)F)c3)nc(Cl)nc2s1`, the melting point came out at 108 °C.
Regarding `CCN(CC)CCNC(=O)c1nc(Cl)c(N)nc1OC`, the melting point turned out to be 158 °C.
Regarding `O=c1c2cc(O)cc(O)c2cc2n1CCCC2`, the melting point lay in the range of 214 to 215 °C.
Molecule `CCCCC(C)(C)C(NC(=O)c1ccc(Cl)cc1)NC(=NC#N)Nc1cccnc1` (stereo not given) displayed a melting point of 168 to 170 °C.
`Nc1nc(-c2ccncc2)nc2c1c(Br)nn2C1CCCC1` displayed a melting point of 189 to 191 °C.
Turning to `CS(=O)(=O)Cc1c(C(=O)O)ccc2c1OC(F)(F)O2`, the melting point is 107 to 109 °C.
In turn, `Cc1ccc(N(C)S(=O)(=O)c2cccs2)c2[nH]c(-c3ncc(CN4CCC(O)C4)s3)cc12` (stereo not given) came in with a melting point of 190 to 191 °C.
The molecule `COCCOCCOC(=O)C#CC(=O)c1cc(OC)c(OC)c(OC)c1` had a melting point of 33 to 34 °C.
In the case of `COc1cc(NC(=O)CN2CCOCC2)c(Cl)cc1Cn1nc(-c2ccc(C(F)(F)F)cc2)oc1=O`, the melting point is 178 to 179 °C.
`c1ccc(Oc2ncc(-c3cnc(-c4ccccc4)[nH]3)cn2)cc1` displayed a melting point of 254 °C.
In turn, `CN(C)C=Nc1[nH]nc(NCc2ccccc2)c1C#N` came in with a melting point of 197 to 200 °C.
The molecule `CCON=C(C)c1ccc2c(c1)ncn2-c1cccc(C2=CCCN(C)C2)c1` gave a melting point of 138 to 143 °C.
`O=C(O)CCCN(C(=O)c1cccc(C(F)(F)F)c1)c1ccccc1-c1ccccc1` had a melting point of 156 to 157 °C.
As to `CCC1CCCCN1CCC(=O)Nc1ccc2c(=O)c3ccc(NC(=O)CCN4CCCCC4CC)cc3[nH]c2c1` (stereo not given), the melting point was above 320 °C.
`Fc1ccc2c(c1)OCc1c(-c3noc(C4CC4)n3)ncn1-2` came in with a melting point of 182 to 184 °C.
`O=c1[nH]ccc2ncccc12` displayed a melting point of 156 to 159 °C.
The molecule `CN1CC(CCCl)Oc2ccc(Cl)cc2C1=O` (stereo not given) gave a melting point of 101 to 103 °C.
The value for `O=C(c1ccc(F)cc1)C1CCN(CCN(C(=O)c2ccc([N+](=O)[O-])cc2)c2ccccc2C(F)(F)F)CC1` was 157 to 158 °C; that for `CCS(=O)(=O)C1(C(O)(Cn2cncn2)c2ccc(Cl)cc2)CC1` (stereo not given) was 215 °C; that for `CCCCc1ncc(C=C2C(=O)Nc3ccccc32)n1Cc1ccc(C(=O)OC)cc1Cl` was 219 to 220 °C.
The result for `CN(CCCNC(=O)c1cc(Cl)cc2nc3ccccc3nc12)CCCNC(=O)c1cc(Cl)cc2nc3ccccc3nc12` reads 169 to 170 °C; that for `COc1cc(Br)cc2c1OCCC2=O`, 137 °C; that for `CC(=O)C(=Cc1cccc([N+](=O)[O-])c1)P1(=O)OCCCO1`, 144 to 146 °C.
As to `Nc1nc(C2CCN(C(=O)Cc3ccc(O)c(O)c3)CC2)c2ccccc2n1`, the melting point lay within 250 to 253 °C.
As for `CN(C)c1ccc(C#N)nn1`, the melting point came to 150 °C.
`COc1ccc(Cn2c(=O)c(=NNc3ccccc3)c(=O)n(CC34CC5CC(CC(C5)C3)C4)c3ccccc32)cc1` yielded a melting point of 170 to 188 °C.
On to `COC(=O)CCC(=O)SCC(=O)NC(C)=O`, for which the melting point was in the range of 111 to 113 °C.
In the case of `CC(C)c1nc(-c2ccc(F)cc2)c(-c2ccc(F)cc2)n1/C=C/[C@@H](O)C[C@@H](O)CC(=O)O`, the melting point lay within 172 to 173 °C.
The molecule `CN1CCC(OC(=O)c2ccccc2Nc2ccnc3cc(C(F)(F)F)ccc23)CC1` showed a melting point of 116 °C.
Take `CC(C)n1nc(-c2c(-c3ccccc3)nn3ccc(OCC(=O)OCc4ccccc4)cc23)ccc1=O`: the melting point came out at 174 °C.
`Cc1oc(-c2ccccc2)nc1COc1ccc(COc2cncc(CC#N)c2)cc1` had a melting point of 137 to 138 °C.
The value for `N#CCC(=O)c1ccc[nH]1` was 79 to 81 °C.
`O=C(NC1Cc2ccccc2C1)C(F)(F)F` showed a melting point of 160 °C.
`CCOC(=O)c1cc(=O)cc(-c2cccc([N+](=O)[O-])c2)o1` showed a melting point of 148 to 152 °C.
In the case of `O=C1C(=CO)COc2ccc(OCc3ccccc3)cc21`, the melting point lay in the range of 82 to 85 °C.
In turn, `Cc1nc2ccc(F)cc2n1C1CC2CC(=O)CC2C1` (stereo not given) displayed a melting point of 199 to 200 °C.
Turning to `CCNC(=O)Nc1c(Cl)cccc1[Si](C)(C)C`, the melting point was 161 to 163 °C.
For `CN(C)S(=O)(=O)c1ccc2c(c1)S(=O)(=O)N=C1CCCN12`, the melting point was 251 to 253 °C.
Turning to `O=C(O)CCCc1ccc(N2CCOCC2)cc1`, the melting point lay in the range of 167 to 168 °C.
`O=C(O)c1c(Cl)cc(N2C(=O)N3CCCC3(Cc3ccc(Br)cc3)C2=O)cc1Cl` (stereo not given) registered a melting point of 152 °C.
On to `CN(C)C(=O)C=Cc1c(C#N)cnn1-c1ncc(C(F)(F)F)cc1Cl`, for which the melting point lay in the range of 116 to 120 °C.
The result for `O=C(O)c1ccsc1COc1ccc(CCCCO)cc1` reads 140 to 141 °C; that for `Cc1sc(-c2ccccc2)nc1COc1ccc(C=O)cn1`, 120 to 121 °C.
As for `CCOC(=O)c1onc(OCC)c1CN1C(=O)c2ccccc2C1=O`, the melting point was 93 to 94 °C.
Molecule `C[C@](N)(Cc1ccccc1)C(=O)O` came in with a melting point of 137 to 138 °C.
The molecule `CC(C)(C)c1ccc(C=CC(=O)c2ccc(N3CCN(c4ccncc4)CC3)cc2)cc1` came in with a melting point of 213 to 214 °C.
The result for `Oc1cc(C(O)C2CCCCC2)c2ccccc2n1` (stereo not given) reads above 250 °C; that for `CC(=O)OCc1cn(C(c2ccccc2)(c2ccccc2)c2ccccc2)cn1`, 133 to 134 °C.
The result for `CC(C)(C)C=NNC(=O)OCc1ccccc1` reads 74 to 74.5 °C.
In turn, `O=C(Nc1cccnc1)c1cc2ccncc2[nH]1` gave a melting point of 270 to 290 °C.
The result for `O=c1c2c(c3cccnc3n1-c1ccccc1)OCCCC2` reads 180 to 181 °C; that for `C=C(CS(=O)(=O)Cc1ccccc1)c1ccccc1`, 118 °C.
Turning to `CCOC(=O)c1cccc(C(=O)c2cccnc2-c2ccc(S(C)(=O)=O)cc2)c1`, the melting point was in the range of 125 to 132 °C.
The result for `CCOC(=O)NNC(=O)NCCC(=O)OC` reads 105 to 107 °C; that for `CCn1nc(-c2ccccc2)c(C(=O)CCc2ccccc2)c(N)c1=O`, 115 to 116 °C.
The result for `COC(=O)c1ccc2c(c1)OCCC2NC(=O)OCc1ccccc1` (stereo not given) reads 140 to 142 °C; that for `OCc1cccc(/C=C/c2ccccc2)c1`, 87 to 88 °C; that for `O=C(O)C1C(=O)c2cc(F)ccc2N=C1c1ccccc1` (stereo not given), 297 °C.
The result for `O=C1CCCN1c1ccc(F)cc1F` reads 95 to 97 °C.
Turning to `CCCCCCCCCCCC(=O)OCC(COCc1ccccc1)OC(=O)CCCCCCCCCCC` (stereo not given), the melting point is 30 to 31 °C.
The value for `[O-][N+](=Cc1ccc(OCc2ccccc2)cc1)C1CCCCCCC1` was 108 °C.
Molecule `COC(=O)C(C)(C)OCc1cc2cc(C(F)(F)F)ccc2n1S(=O)(=O)c1cc(C)cc(C)c1` came in with a melting point of 132 to 134 °C.
The molecule `NS(=O)(=O)Oc1cccc(C(F)(F)F)c1` showed a melting point of 100 to 102 °C.
Consider `COc1cc(Nc2c(C#N)cnc3cc(/C=C/CCO)c(OC)cc23)c(Cl)cc1Cl`, for which the melting point lay within 186 to 188 °C.
Regarding `CC(C)CC(=O)N[C@@H](CC(C)C)C(=O)N[C@@H](Cc1ccccc1)C(=O)CSCc1ccco1`, the melting point fell in the range of 108 to 115 °C.
`CCSc1nc(=O)[nH]cc1F` gave a melting point of 168 °C.
Consider `CC(=O)Nc1nc(C)n2c1CN=C(c1ccccc1F)c1cc(Cl)ccc1-2`, for which the melting point lay within 175 to 178 °C.
`CCCCCCCCCCCCCCCCCCNC(=O)C=Cc1ccc(O)cc1` gave a melting point of 114 °C.
`COC1CCN2C(=O)c3cccc([N+](=O)[O-])c3C2C1` (stereo not given) showed a melting point of 132 to 134 °C.
On to `O=C1CN(C(=O)N2CCOCC2)c2ccccc2N1`, for which the melting point came out at 180 °C.
